Test results: US9289430B2, “Compounds and methods for inhibiting phosphate transport” (Ardelyx, Inc., priority 2010, dated 2016)

Key:
human NaP2b (SLC34A2) = biological target: T1, human NaP2b (SLC34A2) (Homo sapiens, UniProt O95436); assay: NaP2b-mediated Pi transport: 33P phosphate uptake into transfected HEK293 cells; format: cell-based; settings: human protein with threonine inserted after residue 37 and N39D, 100 uM KH2PO4, read-out: pIC50 range for human Nap2b (converted)
T1 construct: host or cells: HEK293
T1 sequence (O95436 1-690): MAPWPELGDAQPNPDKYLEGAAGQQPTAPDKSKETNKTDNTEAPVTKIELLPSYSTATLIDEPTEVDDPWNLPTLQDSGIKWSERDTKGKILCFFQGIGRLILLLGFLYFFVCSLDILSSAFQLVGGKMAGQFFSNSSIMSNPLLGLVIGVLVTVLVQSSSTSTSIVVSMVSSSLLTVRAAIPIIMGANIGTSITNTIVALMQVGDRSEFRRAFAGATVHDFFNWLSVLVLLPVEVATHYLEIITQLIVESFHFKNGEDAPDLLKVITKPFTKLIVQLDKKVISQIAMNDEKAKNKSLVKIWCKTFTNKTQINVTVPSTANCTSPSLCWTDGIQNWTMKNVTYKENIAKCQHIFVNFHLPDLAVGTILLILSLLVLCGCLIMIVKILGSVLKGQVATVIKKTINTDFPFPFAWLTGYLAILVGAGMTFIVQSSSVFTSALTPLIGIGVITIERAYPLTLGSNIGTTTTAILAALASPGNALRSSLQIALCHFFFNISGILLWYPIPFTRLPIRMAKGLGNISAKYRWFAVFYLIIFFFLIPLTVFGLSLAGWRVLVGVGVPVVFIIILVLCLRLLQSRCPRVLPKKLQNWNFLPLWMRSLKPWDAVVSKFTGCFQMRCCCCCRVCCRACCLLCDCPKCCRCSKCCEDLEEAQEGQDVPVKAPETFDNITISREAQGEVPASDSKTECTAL
Method: (§1) Materials. HEK293 cells were obtained from the American Type Culture collection and propagated per their instructions. Expression clones for rat and human NaP2b (SLC34A2) were obtained from Open Biosystems (Catalog numbers MRN1768-9510282, and MHS1010-99823026, respectively). The sequence of the human protein was mutated to insert a threonine after residue 37, and to introduce a N39D mutation.
(§2) Inhibition of Pi Transport. The rate of phosphate (Pi) uptake into HEK293 cells was measured using a modification of the method described by Mohrmann et al. (Mohrmann, I., Mohrmann, M., Biber, J., and Murer, H. (1986) Am. J. Phys. 250(3 Pt 1):G323-30.) Transfected HEK293 cells were treated with a pharmacological agent to minimize endogenous PiT-mediated phosphate transport activity, such that the only remaining sodium-dependent phosphate transport activity is that which was bestowed by introduction of the NaP2b genes.
(§3) Cells were seeded into 96-well plates at 25,000 cells/well and cultured overnight. Lipofectamine 2000 (Invitrogen) was used to introduce the NaP2b cDNA, and the cells were allowed to approach confluence during a second overnight incubation. […] Cells were then overlayed with either choline uptake buffer or sodium uptake buffer (14 mM Tris, 137 mM sodium chloride, 5.4 mM KCl, 2.8 mM CaCl2, 1.2 mM MgSO4, 100 uM KH2PO4, PiT-silencing agent, 1 mg/mL Bovine Serum Albumin, pH 7.4) containing 6-9 uCi/mL ^33P orthophosphoric acid (Perkin Elmer) and test compound. Each compound was tested at twelve concentrations ranging from 0.1 nM to 30 uM. Assays were run in duplicate.
(§4) After incubation for 3-30 minutes at room temperature, assay mixtures were removed, and the cells were washed twice with ice cold stop solution (137 mM sodium chloride, 14 mM Tris, pH 7.4). Cells were lysed by addition of 20 μL 0.1% Tween 80 followed by 100 μL scintillation fluid, and counted using a TopCount (Perkin Elmer).
(§5) pIC50 (the negative log of the IC50) values of the test compounds were calculated using GraphPad Prism.

rat NaP2b (SLC34A2) = biological target: T2, rat NaP2b (SLC34A2) (Rattus norvegicus, UniProt Q9JJ09); assay: as above; format: cell-based; settings: 100 uM KH2PO4, PiT-silencing agent, read-out: pIC50 range for rat Nap2b (converted)
T2 construct: host or cells: HEK293
T2 sequence (Q9JJ09 1-695): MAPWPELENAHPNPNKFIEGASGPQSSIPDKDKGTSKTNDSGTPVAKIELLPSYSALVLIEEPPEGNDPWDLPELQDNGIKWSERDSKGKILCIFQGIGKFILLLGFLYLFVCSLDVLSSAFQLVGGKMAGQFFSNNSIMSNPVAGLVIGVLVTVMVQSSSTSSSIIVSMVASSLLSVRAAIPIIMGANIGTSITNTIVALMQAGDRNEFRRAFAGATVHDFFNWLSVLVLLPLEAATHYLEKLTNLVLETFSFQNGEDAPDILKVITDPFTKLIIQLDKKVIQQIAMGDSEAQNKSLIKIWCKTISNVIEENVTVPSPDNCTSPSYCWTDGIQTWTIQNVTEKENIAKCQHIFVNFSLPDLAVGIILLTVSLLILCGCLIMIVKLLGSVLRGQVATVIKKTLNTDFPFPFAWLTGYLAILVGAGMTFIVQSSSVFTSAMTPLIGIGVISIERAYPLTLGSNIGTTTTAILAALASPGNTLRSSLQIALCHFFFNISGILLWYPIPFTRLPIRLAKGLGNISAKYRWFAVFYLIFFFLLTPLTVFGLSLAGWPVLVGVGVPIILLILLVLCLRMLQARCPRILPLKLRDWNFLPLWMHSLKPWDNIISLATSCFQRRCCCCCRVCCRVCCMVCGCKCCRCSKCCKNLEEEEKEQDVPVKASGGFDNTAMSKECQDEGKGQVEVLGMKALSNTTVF
Method: as §1, §2, §3, §4, §5

[1] = test system: Uptake of Phosphate from the Intestine; assay: In vivo bolus phosphorus challenge; design: species or system Sprague-Dawley rats; settings: rats on low-phosphorus diet, oral drug dose 30 (unit not given) 15 min before phosphate bolus, serum 30 min post bolus
Method: By pretreating animals with a low phosphorus diet followed by the subsequent dosing of a phosphorus bolus, serum phosphorus levels were monitored after 30 minutes as a surrogate for intestinal phosphorus absorption. […] The in vivo bolus phosphorus challenge model used here mimics this model in rats.
Male, 7-week-old Sprague-Dawley rats (Charles-River laboratories international, Hollister, Calif.) were allowed to acclimatize for a minimum of 3 days before switching to a synthetic low-phosphorus diet (TD.85010, Harlan Teklad, Madison, Wis.) which contains 0.1% phosphorus and 0.6% calcium. At day 5, testing compounds or vehicle alone (as indicated) were orally administered at the indicated dose in a volume of 5 ml/kg, followed by a bolus gavage of monobasic sodium phosphate (1 mmol in 1 ml) 15 min after compound dosing. Serum was collected via retroorbital bleeding 30 min post phosphate bolus and phosphate levels were determined utilizing an ACE ALERA blood chemistry analyzer (Alfa Wassermann Diagnostic Technologies, West Caldwell, N.J.).
The extent of inhibition by test compounds on the elevation of serum phosphate levels in response to the bolus of phosphate is shown in Table 3 (data are expressed as % Inhibition, with 6-10 animals per data point). The differences between groups were evaluated by one-way analysis of variance with Dunnett's post hoc tests.

[2] = Fecal recovery of orally administered compounds; format: in vivo, Sprague-Dawley rats; settings: rats, oral gavage, nominal 10 mg/kg (actual 7.6-11 mg/kg), feces 0-48 hr after dosing
Method: Quantitative determination of test compound level in feces after oral gavage was performed using the same set of animals used to determine test compound concentration in plasma (Example 30). The animals were kept in metabolic cages and feces were collected from the time of dosing until 48 hr after dosing. Upon collection, feces was dried by lyophilization and ground to a visually homogenous powder. Duplicate samples of ground feces from each individual animal were weighed out and extracted using organic solvent. Extracted samples were then diluted into mobile phase and test compound levels were quantitatively determined by LC-MS/MS analysis as described in “Example 30” except that the standard curve was prepared in a feces matrix. Extraction conditions were not optimized for individual compounds, and thus may represent a minimal level of recovery.

[3] = test system: Uptake of Phosphorus from the Intestine; assay: In vivo co-dosing in chow, urinary P output relative to P consumed; design: species or system Sprague-Dawley rats; settings: rats, compound in chow, nominal 100 mg/kg/day (mean actual 104-105 mg/kg/day), mean of 24-96 h, vs control
Description: Male, 7-week-old Sprague-Dawley rats (Charles-River laboratories international, Hollister, Calif.) were allowed to acclimate for a minimum of 3 days. The experiment was initiated by switching animals to a synthetic diet (0.6% phosphorus and 0.6% calcium, Harlan Teklad TD.84122) for four days. After this time, the animals were placed into metabolic cages for daily monitoring of food and water consumption, as well as urine and fecal collections. Test compounds were incorporated into the powdered diet listed above containing 3% chocolate flavoring (w/w, BioSery #7345) at 1.3 mg test compound per gram of diet to achieve an average daily nominal dose of 100 mg/kg/day. The actual dose received by each animal was later determined by measuring prepared diet consumption and body weight. Urine samples were collected in three daily periods from 24-48, 48-72, and 72-96 hours of drug dosing. […] Phosphorous levels in the urine were determined by anion exchange chromatography using a Dionex ICS-3000 ion chromatography system. […] Elution of urine phosphate ions was monitored via conductivity detector and reported as ppm relative to a standard ion solution containing phosphate. Daily urinary P output relative to the P consumed in the prepared diet for each animal was calculated. […] The differences between the means of control and treated groups were evaluated by t tests. […]

[4] = Stability in simulated gastric and intestinal fluid; format: in vitro ADME; settings: 6 hr, 1-20 μM
Method: Test compounds were incubated at 1-20 μM in simulated gastric fluid (SGF; standard USP solution with 3 mg/mL pepsin) or simulated intestinal fluid (SIF; standard USP solution with 3 mg/mL pancreatin) for 3 hr or 6 hr. HPLC-UV or HPLC-MS were used to determine test compound levels using peak area %. Results (Table 5) were reported as the percentage of test compound remaining after incubation in a given condition relative to test compound present at t=0 in the same condition.

Structure (SMILES)	IC50 (human NaP2b (SLC34A2))	IC50 (rat NaP2b (SLC34A2))	% Inhibition of Serum P elevation [1]	% recovered in feces [2]	Mean % inhibition Urine Pout/P consumed [3]	% remaining, SGF ([4]; simulated gastric fluid with 3 mg/mL pepsin)	% remaining, SIF ([4]; simulated intestinal fluid with 3 mg/mL pancreatin)
O=C(O)CCSCc1cccc(C(=O)Nc2ccc(N3CCCCC3)cc2C(=O)Nc2ccn(-c3cccc(C(F)(F)F)c3)n2)c1 [Example 7, 3-((3-((4-(Piperidin-1-yl)-2-((1-(3-(trifluoromethyl)phenyl)-1H-pyrazol-3-yl)carbamoyl)phenyl)carbamoyl)benzyl)thio)propanoic acid]	1000 to 7940 nM	1000 to 7940 nM	49%	9.5%			
CN(CCOCCOCCOCCC(=O)O)C(=O)c1cccc(C(=O)Nc2ccc(N3CCCCC3)cc2C(=O)Nc2ccn(-c3cccc(C(F)(F)F)c3)n2)c1 [Example 15, 2-Methyl-1-oxo-1-(3-((4-(piperidin-1-yl)-2-((1-(3-(trifluoromethyl)phenyl)-1H-pyrazol-3-yl)carbamoyl)phenyl)carbamoyl)phenyl)-5,8,11-trioxa-2-azatetradecan-14-oic acid]	< 1000 nM	1000 to 7940 nM		17%	9%	100%	97%
